Laboratory results taken from patent US20240293413A1, “COMPOUND AND METHOD FOR TREATING CHEMOTHERAPY-RELATED GASTROINTESTINAL SIDE EFFECTS” (ONQUALITY PHARMACEUTICALS CHINA LTD., priority 2021, published 2024).

What was measured:
[1] = test system: diarrhea caused by a chemotherapeutic agent in Balb/c mice; assay: Examples 343-381 (Table 6): oral versus intravenous CDK inhibitor, relief of diarrhea caused by a chemotherapeutic agent; format: in vivo;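 on Relative remission rate: percent of treated mice whose diarrhea grade fell below chemotherapy-group average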
Outline: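 Balb/c mice (10 per group) received the CDK inhibitor orally or by tail-vein injection, or vehicle, followed by a chemotherapeutic agent or its solvent. Diarrhea grade was scored daily.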

[2] = test system: Chemotherapeutic agent-caused diarrhea models of Balb/c mice; assay: Examples 1-229 (Table 3): oral CDK inhibitor, relief of diarrhea caused by a chemotherapeutic agent; format: in vivo;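 further: percent of treated mice whose diarrhea grade fell below chemotherapy-group average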

Q: What does the source list for `CN(C)C(=O)c1cc2cnc(Nc3ccc(N4CCNCC4)cn3)nc2n1C1CCCC1` [Ribociclib]?
A: Relative remission rate ([1]; Example 352, Etoposide and cisplatin intraperitoneal injection 50 (E) 5 (Cis) mg/kg single, CDK inhibitor intravenous injection 125 mg/kg single, 0.5 h before, cycle 7 days): 10%; Relative remission rate ([1]; Example 352, Etoposide and cisplatin intraperitoneal injection 50 (E) 5 (Cis) mg/kg single, CDK inhibitor oral 125 mg/kg single, 0.5 h before, cycle 7 days): 40%; Relative remission rate ([1]; Example 353, Etoposide and cisplatin intraperitoneal injection 50 (E) 5 (Cis) mg/kg single, CDK inhibitor intravenous injection 125 mg/kg single, 4 h before, cycle 7 days): 10%; Relative remission rate ([1]; Example 353, Etoposide and cisplatin intraperitoneal injection 50 (E) 5 (Cis) mg/kg single, CDK inhibitor oral 125 mg/kg single, 4 h before, cycle 7 days): 40%; Relative remission rate ([1]; Example 354, Etoposide and cisplatin intraperitoneal injection 50 (E) 5 (Cis) mg/kg single, CDK inhibitor intravenous injection 125 mg/kg single, 8 h before, cycle 7 days): 10%; Relative remission rate ([1]; Example 354, Etoposide and cisplatin intraperitoneal injection 50 (E) 5 (Cis) mg/kg single, CDK inhibitor oral 125 mg/kg single, 8 h before, cycle 7 days): 60%; Relative remission rate ([1]; Example 355, Etoposide and cisplatin intraperitoneal injection 50 (E) 5 (Cis) mg/kg single, CDK inhibitor intravenous injection 125 mg/kg single, 12 h before, cycle 7 days): 20%; Relative remission rate ([1]; Example 355, Etoposide and cisplatin intraperitoneal injection 50 (E) 5 (Cis) mg/kg single, CDK inhibitor oral 125 mg/kg single, 12 h before, cycle 7 days): 60%; Relative remission rate ([1]; Example 356, Etoposide and cisplatin intraperitoneal injection 50 (E) 5 (Cis) mg/kg single, CDK inhibitor intravenous injection 125 mg/kg single, 24 h before, cycle 7 days): 10%; Relative remission rate ([1]; Example 356, Etoposide and cisplatin intraperitoneal injection 50 (E) 5 (Cis) mg/kg single, CDK inhibitor oral 125 mg/kg single, 24 h before, cycle 7 days): 50%; Relative remission rate ([1]; Example 359, Carboplatin (CBP) intraperitoneal injection 120 mg/kg single, CDK inhibitor intravenous injection 200 mg/kg single, 0.5 h before, cycle 10 days): 20%; Relative remission rate ([1]; Example 359, Carboplatin (CBP) intraperitoneal injection 120 mg/kg single, CDK inhibitor oral 200 mg/kg single, 0.5 h before, cycle 10 days): 60%; Relative remission rate ([1]; Example 360, Carboplatin (CBP) intraperitoneal injection 120 mg/kg single, CDK inhibitor intravenous injection 200 mg/kg single, 4 h before, cycle 10 days): 20%; Relative remission rate ([1]; Example 360, Carboplatin (CBP) intraperitoneal injection 120 mg/kg single, CDK inhibitor oral 200 mg/kg single, 4 h before, cycle 10 days): 80%; Relative remission rate ([1]; Example 361, Carboplatin (CBP) intraperitoneal injection 120 mg/kg single, CDK inhibitor intravenous injection 200 mg/kg single, 8 h before, cycle 10 days): 10%; Relative remission rate ([1]; Example 361, Carboplatin (CBP) intraperitoneal injection 120 mg/kg single, CDK inhibitor oral 200 mg/kg single, 8 h before, cycle 10 days): 60%; Relative remission rate ([1]; Example 362, Carboplatin (CBP) intraperitoneal injection 120 mg/kg single, CDK inhibitor intravenous injection 200 mg/kg single, 12 h before, cycle 10 days): 10%; Relative remission rate ([1]; Example 362, Carboplatin (CBP) intraperitoneal injection 120 mg/kg single, CDK inhibitor oral 200 mg/kg single, 12 h before, cycle 10 days): 60%; Relative remission rate ([1]; Example 363, Carboplatin (CBP) intraperitoneal injection 120 mg/kg single, CDK inhibitor intravenous injection 200 mg/kg single, 24 h before, cycle 10 days): 10%; Relative remission rate ([1]; Example 363, Carboplatin (CBP) intraperitoneal injection 120 mg/kg single, CDK inhibitor oral 200 mg/kg single, 24 h before, cycle 10 days): 80%; Relative remission rate ([1]; Example 376, Gemcitabine (GEM) oral administration 300 mg/kg single, CDK inhibitor intravenous injection 100 mg/kg single, 24 h before, cycle 8 days): 20%; Relative remission rate ([1]; Example 376, Gemcitabine (GEM) oral administration 300 mg/kg single, CDK inhibitor oral 100 mg/kg single, 24 h before, cycle 8 days): 60%; relief of diarrhea by oral administration and injection administration ([1]; diarrhea caused by etoposide, etoposide in combination with cisplatin, carboplatin, gemcitabine, gemcitabine in combination with carboplatin, and topotecan, oral administration has the most significant effect): effectively relieve diarrhea; Relative remission rate (%) ([2]; Example 45, Fluorouracil (5-Fu) intravenous injection 175 mg/kg single, CDK inhibitor oral 200 mg/kg single 0.5 h before, cycle 8 days): 40%; Relative remission rate (%) ([2]; Example 113, Irinotecan (CPT-11) oral administration 300 mg/kg single, CDK inhibitor oral 100 mg/kg single 24 h before, cycle 11 days): 60%; Relative remission rate (%) ([2]; Example 167, Docetaxel (DTX) intravenous injection 10 mg/kg single, CDK inhibitor oral 200 mg/kg single 9 h before, cycle 8 days): 80%; Relative remission rate (%) ([2]; Example 229, Etoposide 60 mg/kg and carboplatin 5 mg/kg intraperitoneal injection single, CDK inhibitor oral 200 mg/kg single, 12 h before, 10 days): 50%
